The source of these data is patent US10093683B2, “Factor XIa inhibitors” (Merck Sharp & Dohme Corp., priority 2014, dated 2018).

Where two headings read alike, the source gives them in different places.

For one assay, the target named is human Factor XIa (Homo sapiens (Human), UniProt P03951). The assay is described as follows: Factor XIa Assay. The assay is classed as biochemical. The note with it: read-out: FXIa Ki. The procedure, abridged: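 Purified human FXIa (40 pM final) hydrolysing fluorogenic Z-Gly-Pro-Arg-AFC (100 μM) in 50 mM HEPES pH 7.4, 150 mM NaCl, 5 mM CaCl2, 0.1% PEG 8000, at room temperature or 37° C. Initial velocities measured after enzyme–inhibitor equilibration; Ki from Vo/Vi versus [I], assuming competitive inhibition.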
Chain of human Factor XIa (P03951 388-625): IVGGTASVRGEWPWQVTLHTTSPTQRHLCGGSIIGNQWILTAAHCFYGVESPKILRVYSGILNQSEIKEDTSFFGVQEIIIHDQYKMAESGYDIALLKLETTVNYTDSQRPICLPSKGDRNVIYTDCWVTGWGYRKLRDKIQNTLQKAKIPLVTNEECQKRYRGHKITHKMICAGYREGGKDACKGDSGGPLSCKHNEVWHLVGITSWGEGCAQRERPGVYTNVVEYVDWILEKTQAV
Chain of human Factor XIa (P03951 19-387 partner): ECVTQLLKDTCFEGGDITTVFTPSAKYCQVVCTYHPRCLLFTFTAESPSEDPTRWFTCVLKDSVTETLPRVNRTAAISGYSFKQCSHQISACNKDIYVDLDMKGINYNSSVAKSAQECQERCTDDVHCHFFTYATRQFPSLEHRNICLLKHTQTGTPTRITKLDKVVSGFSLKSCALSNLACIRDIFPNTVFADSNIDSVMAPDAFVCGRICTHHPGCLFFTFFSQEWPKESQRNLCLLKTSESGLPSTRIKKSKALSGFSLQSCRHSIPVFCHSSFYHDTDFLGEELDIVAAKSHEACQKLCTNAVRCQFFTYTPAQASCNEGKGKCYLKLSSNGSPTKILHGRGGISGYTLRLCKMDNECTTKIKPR

A further assay has as its target Human plasma kallikrein (Homo sapiens (Human), UniProt P03952). The assay is described as follows: Kallikrein Assay. The assay is classed as biochemical. The settings on record: purified Human plasma kallikrein 0.5 nM, Acetyl-K-P-R-AFC, pH 7.4; Ki from IC50 by Cheng Prusoff. The procedure, abridged:
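Purified human plasma kallikrein (0.5 nM final) with Acetyl-K-P-R-AFC substrate ([…]) in 50 mM HEPES pH 7.4, 150 mM NaCl, 5 mM CaCl2, 0.1% PEG 8000, after enzyme-inhibitor equilibration. Fluorescence (405 ex/510 em) under linear conditions; IC50 from four-parameter fit, converted to Ki by Cheng-Prusoff.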

Setting [1] is: purified human Factor XIa 40 pM, Z-Gly-Pro-Arg-AFC 100 μM, pH 7.4.

Chain of Human plasma kallikrein (P03952 391-638): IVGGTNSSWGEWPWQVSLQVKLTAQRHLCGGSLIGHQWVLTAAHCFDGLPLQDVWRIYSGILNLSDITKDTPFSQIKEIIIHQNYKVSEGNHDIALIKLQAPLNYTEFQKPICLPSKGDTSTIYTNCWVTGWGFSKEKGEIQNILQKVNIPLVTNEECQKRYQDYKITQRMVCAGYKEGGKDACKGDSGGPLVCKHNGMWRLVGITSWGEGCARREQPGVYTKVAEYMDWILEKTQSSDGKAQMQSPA
Chain of Human plasma kallikrein (P03952 20-390 partner): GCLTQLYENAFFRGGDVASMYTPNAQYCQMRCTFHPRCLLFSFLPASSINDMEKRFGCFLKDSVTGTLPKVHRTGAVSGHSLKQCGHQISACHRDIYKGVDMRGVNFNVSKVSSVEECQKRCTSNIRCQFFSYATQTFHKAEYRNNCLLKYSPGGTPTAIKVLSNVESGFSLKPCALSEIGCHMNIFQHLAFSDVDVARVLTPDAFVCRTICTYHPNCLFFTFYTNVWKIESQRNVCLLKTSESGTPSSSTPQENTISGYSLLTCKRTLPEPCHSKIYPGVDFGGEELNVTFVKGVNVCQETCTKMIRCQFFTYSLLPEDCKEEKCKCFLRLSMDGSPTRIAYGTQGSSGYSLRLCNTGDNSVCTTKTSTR

Consider `COC(=O)Nc1ccc(C(=O)N[C@@H](CC(=O)N2CC[C@H]2CO)C(=O)N2CCC[C@@]3(C2)OC(=O)Nc2ccc(Cl)cc23)cc1` [Example 95, methyl (4-(((S)-1-((R)-6-chloro-2-oxo-1,2-dihydrospiro[benzo[d][1,3]oxazine-4,3′-piperidin]-1′-yl)-4-((S)-2-(hydroxymethyl)azetidin-1-yl)-1,4-dioxobutan-2-yl)carbamoyl)phenyl)carbamate], for which the Ki on human Factor XIa (setting [1]) amounted to 3.59 nM; at Human plasma kallikrein it was 1.81 nM.
Regarding `O=C1Nc2ccc(Cl)cc2C2(CCN(C(=O)[C@H](Cc3ccccc3)NC(=O)c3ccc(Nc4ncc[nH]4)cc3)C2)O1` (stereo partly drawn) [Example 188], the Ki at human Factor XIa came out at 42 nM; on Human plasma kallikrein it was 155 nM.
The corresponding values for `O=C1Nc2ccc(Cl)c(F)c2[C@@]2(CCCN(C(=O)[C@H](CC3CC3)NC(=O)c3ccc4[nH]c(=O)ccc4c3)C2)O1` [Example 255] are 4 nM and 0.45 nM.
The corresponding values for `O=C(Nc1ccc(C(=O)N[C@@H](Cc2ccccc2)C(=O)N2CCC3(C2)OC(=O)Nc2ccc(Cl)cc23)cc1)OCCN1CCOCC1` (stereo partly drawn) [Example 191, 2-morpholinoethyl (4-(((2S)-1-(6-chloro-2-oxo-1,2-dihydrospiro[benzo[d][1,3]oxazine-4,3′-pyrrolidin]-1′-yl)-1-oxo-3-phenylpropan-2-yl)carbamoyl)phenyl)carbamate] are 33.5 nM and 123 nM.
For the molecule `COC(=O)Nc1ccc(C(=O)N[C@@H](Cc2ccccc2)C(=O)N2CCC[C@@]3(C2)OC(=O)Nc2ccc(C)c(F)c23)cc1` [Example 16, methyl (4-(((S)-1-((R)-5-fluoro-6-methyl-2-oxo-1,2-dihydrospiro[benzo[d][1,3]oxazine-4,3′-piperidin]-1′-yl)-1-oxo-3-phenylpropan-2-yl)carbamoyl)phenyl)carbamate], the figures for the Ki on human Factor XIa (setting [1]) and on Human plasma kallikrein were 3.85 nM and 1.36 nM, respectively.
The corresponding values for `COC(=O)Nc1ccc(C(=O)N[C@@H](Cc2ccc(-c3cc[nH]n3)cc2)C(=O)N2CC[C@@]3(C2)OC(=O)Nc2ccc(Cl)cc23)cc1` [Example 77, methyl (4-(((S)-3-(4-(1H-pyrazol-3-yl)phenyl)-1-((R)-6-chloro-2-oxo-1,2-dihydrospiro[benzo[d][1,3]oxazine-4,3′-pyrrolidin]-1′-yl)-1-oxopropan-2-yl)carbamoyl)phenyl)carbamate] are 3.48 nM and 32.6 nM.
The corresponding values for `COC(=O)Nc1ccc(C(=O)N[C@@H](Cc2cncn2C)C(=O)N2CCC[C@@]3(C2)OC(=O)Nc2ccc(Cl)cc23)cc1` [Example 53, methyl (4-(((S)-1-((R)-6-chloro-2-oxo-1,2-dihydrospiro[benzo[d][1,3]oxazine-4,3′-piperidin]-1′-yl)-3-(1-methyl-1H-imidazol-5-yl)-1-oxopropan-2-yl)carbamoyl)phenyl)carbamate] are 15.5 nM and 2.21 nM.
On to `COC(=O)Nc1ccc(C(=O)N[C@@H](CC(=O)N2CC3CCCC32)C(=O)N2CCC[C@@]3(C2)OC(=O)Nc2ccc(Cl)cc23)cc1` (stereo partly drawn) [Example 94, methyl (4-(((2S)-4-(6-azabicyclo[3.2.0]heptan-6-yl)-1-((R)-6-chloro-2-oxo-1,2-dihydrospiro[benzo[d][1,3]oxazine-4,3′-piperidin]-1′-yl)-1,4-dioxobutan-2-yl)carbamoyl)phenyl)carbamate], for which the Ki on human Factor XIa (setting [1]) was 5.47 nM; at Human plasma kallikrein it was 1.42 nM.
Consider `COC(=O)NCc1ccc(C(=O)N[C@@H](Cc2ccccc2)C(=O)N2CCC[C@@]3(C2)OC(=O)Nc2ccc(Cl)c(F)c23)cc1` [Example 241, methyl (4-(((S)-1-((R)-6-chloro-5-fluoro-2-oxo-1,2-dihydrospiro[benzo[d][1,3]oxazine-4,3′-piperidin]-1′-yl)-1-oxo-3-phenylpropan-2-yl)carbamoyl)benzyl)carbamate], for which the Ki at human Factor XIa amounted to 53.9 nM; at Human plasma kallikrein it was 2.13 nM.
As for `COCC(=O)Nc1ccc(C(=O)N[C@@H](Cc2ccccc2)C(=O)N2CCC[C@@]3(C2)OC(=O)Nc2ccc(Cl)c(F)c23)cc1` [Example 230, N-((S)-1-((R)-6-chloro-5-fluoro-2-oxo-1,2-dihydrospiro[benzo[d][1,3]oxazine-4,3′-piperidin]-1′-yl)-1-oxo-3-phenylpropan-2-yl)-4-(2-methoxyacetamido)benzamide], the Ki at human Factor XIa amounted to 17.3 nM; on Human plasma kallikrein it was 2.72 nM.
For the molecule `COCC[C@H](NC(=O)c1ccc(NC(=O)OC)cc1)C(=O)N1CCC[C@@]2(C1)OC(=O)Nc1ccc(Cl)cc12` [Example 37, methyl (4-(((S)-1-((R)-6-chloro-2-oxo-1,2-dihydrospiro[benzo[d][1,3]oxazine-4,3′-piperidin]-1′-yl)-4-methoxy-1-oxobutan-2-yl)carbamoyl)phenyl)carbamate], the Ki at human Factor XIa (setting [1]) stood at 9.21 nM; on Human plasma kallikrein it was 2.68 nM.
The corresponding values for `COC(=O)Nc1ccc(C(=O)N[C@@H](CC2CCOCC2)C(=O)N2CCC[C@@]3(C2)OC(=O)Nc2ccc(Cl)cc23)cc1` [Example 65, methyl (4-(((S)-1-((R)-6-chloro-2-oxo-1,2-dihydrospiro[benzo[d][1,3]oxazine-4,3′-piperidin]-1′-yl)-1-oxo-3-(tetrahydro-2H-pyran-4-yl)propan-2-yl)carbamoyl)phenyl)carbamate] are 41.5 nM and 5.4 nM.
With `COC(=O)Nc1ccc(C(=O)N[C@@H](Cc2ccsc2)C(=O)N2CCC3(C2)OC(=O)Nc2ccc(Cl)cc23)cc1` (stereo partly drawn) [Example 32, methyl (4-(((2S)-1-(6-chloro-2-oxo-1,2-dihydrospiro[benzo[d][1,3]oxazine-4,3′-pyrrolidin]-1′-yl)-1-oxo-3-(thiophen-3-yl)propan-2-yl)carbamoyl)phenyl)carbamate], the Ki is 16 nM at human Factor XIa (setting [1]) and 42.2 nM on Human plasma kallikrein.
For the molecule `O=C(Nc1ccc(C(=O)N[C@@H](Cc2ccc(F)cc2)C(=O)N2CCC[C@@]3(C2)OC(=O)Nc2ccc(Cl)c(F)c23)cc1)OCCc1nnn[nH]1` [Example 274, 2-(1H-tetrazol-5-yl)ethyl (4-(((S)-1-((R)-6-chloro-5-fluoro-2-oxo-1,2-dihydrospiro[benzo[d][1,3]oxazine-4,3′-piperidin]-1′-yl)-3-(4-fluorophenyl)-1-oxopropan-2-yl)carbamoyl)phenyl)carbamate], the Ki came out at 3.22 nM on human Factor XIa and 0.65 nM at Human plasma kallikrein.
Take `COC(=O)Nc1ccc(C(=O)N[C@@H](CC(=O)N2CC[C@@H]2C)C(=O)N2CCC[C@@]3(C2)OC(=O)Nc2ccc(Cl)cc23)cc1` [Example 102, methyl (4-(((S)-1-((R)-6-chloro-2-oxo-1,2-dihydrospiro[benzo[d][1,3]oxazine-4,3′-piperidin]-1′-yl)-4-((S)-2-methylazetidin-1-yl)-1,4-dioxobutan-2-yl)carbamoyl)phenyl)carbamate]: the results for the Ki at human Factor XIa (setting [1]) and at Human plasma kallikrein were 0.77 nM and under 1.36 nM, respectively.
With `Nc1n[nH]c2cc(C(=O)N[C@@H](Cc3ccccc3)C(=O)N3CCCC4(C3)OC(=O)Nc3ccc(Cl)c(F)c34)ccc12` (stereo partly drawn) [Example 225], the Ki turned out to be 0.4 nM on human Factor XIa and 0.95 nM at Human plasma kallikrein.
Take `COC(=O)Nc1ccc(C(=O)N[C@@H](Cc2ccc(O)cc2)C(=O)N2CCC3(C2)OC(=O)Nc2ccc(Cl)cc23)cc1` (stereo partly drawn) [Example 35, methyl (4-(((2S)-1-(6-chloro-2-oxo-1,2-dihydrospiro[benzo[d][1,3]oxazine-4,3′-pyrrolidin]-1′-yl)-3-(4-hydroxyphenyl)-1-oxopropan-2-yl)carbamoyl)phenyl)carbamate]: the figures for the Ki at human Factor XIa (setting [1]) and at Human plasma kallikrein were 3.28 nM and 24.6 nM, respectively.
Regarding `COC(=O)n1nc(N)c2ccc(C(=O)N[C@@H](Cc3ccccc3)C(=O)N3CC[C@@]4(C3)OC(=O)Nc3ccc(Cl)cc34)cc21` [Example 226, Methyl 3-amino-6-(((S)-1-((R)-6-chloro-2-oxo-1,2-dihydrospiro[benzo[d][1,3]oxazine-4,3′-pyrrolidin]-1′-yl)-1-oxo-3-phenylpropan-2-yl)carbamoyl)-1H-indazole-1-carboxylate], the Ki on human Factor XIa amounted to 18.1 nM; at Human plasma kallikrein, 23.2 nM.
On to `CC(=O)Nc1ccc(C(=O)N[C@@H](Cc2ccccc2)C(=O)N2CCC[C@@]3(C2)OC(=O)Nc2ccc(Cl)c(F)c23)cc1` [Example 240, 4-acetamido-N-((S)-1-((R)-6-chloro-5-fluoro-2-oxo-1,2-dihydrospiro[benzo[d][1,3]oxazine-4,3′-piperidin]-1′-yl)-1-oxo-3-phenylpropan-2-yl)benzamide], for which the Ki turned out to be 4.28 nM on human Factor XIa and 1.49 nM at Human plasma kallikrein.
For `COC(=O)Nc1ccc(C(=O)N[C@@H](CC(C)(C)O)C(=O)N2CC[C@@]3(C2)OC(=O)Nc2ccc(Cl)cc23)cc1` [Example 111, methyl (4-(((S)-1-((R)-6-chloro-2-oxo-1,2-dihydrospiro[benzo[d][1,3]oxazine-4,3′-pyrrolidin]-1′-yl)-4-hydroxy-4-methyl-1-oxopentan-2-yl)carbamoyl)phenyl)carbamate], the Ki was determined as 12 nM on human Factor XIa (setting [1]) and 76 nM on Human plasma kallikrein.
The corresponding values for `COC(=O)Nc1ccc(C(=O)N[C@@H](CC2CC2)C(=O)N2CCC[C@@]3(C2)OC(=O)Nc2ccc(C)cc23)cc1` [Example 66, methyl (4-(((S)-3-cyclopropyl-1-((R)-6-methyl-2-oxo-1,2-dihydrospiro[benzo[d][1,3]oxazine-4,3′-piperidin]-1′-yl)-1-oxopropan-2-yl)carbamoyl)phenyl)carbamate] are 30 nM and 3.8 nM.
